Values after ≈ are worked out from the molar mass of the structure shown.
Conditions: buffer; pH 7.4; 200.0 µM

Structure (SMILES) | solubility kinetic [µg/mL]
COC(=O)C1=C(C)NC(=O)NC1c1ccc(-c2ccc(Cl)cc2)o1 (configuration not stated) | 4.8 (≈ 13.8 µM)
CCOc1ccc2[nH]cc(C(=O)NCc3ccc(F)cc3)c(=O)c2c1 | 1.9 (≈ 5.58 µM)
COc1cc(C(=S)N2CCCC2)ccc1OCC(N)=O | > 44.2
Cn1c(=O)[nH]c(=O)c2c1nc1n2CC(COc2ccc3ccccc3c2)O1 (configuration not stated) | 0.4 (≈ 1.1 µM)
CC(=O)Nc1ccc(NC(=O)c2cccc(Oc3ccccc3)c2)cc1 | < 0.4
COCCn1c(Cc2ccccc2)nnc1SCC(=O)Nc1ccccc1 | > 57.4
CC(NC(=O)c1ccco1)c1ccc2c(c1)OCO2 (configuration not stated) | > 38.9
O=C(O)C1C2CCC(C2)C1C(=O)Nc1cccc([N+](=O)[O-])c1 (configuration not stated) | 13.9 (≈ 45.7 µM)
N#Cc1ccccc1OCC(O)CS(=O)(=O)c1ccccc1 (configuration not stated) | > 47.6
COc1ccc(CCC(=O)Nc2ccc3c(c2)OCO3)cc1OC | 35.5 (≈ 108 µM)
Cc1ccnc(NC(=O)CCNC(=O)c2ccc(Cl)cc2)c1 | 14.9 (≈ 46.9 µM)
COc1ccc(S(=O)(=O)NC2CC3CCC2C3)cc1 (configuration not stated) | 36.5 (≈ 130 µM)
COC(=O)c1cc(OC)c(OC)cc1NC(=S)N1CCOCC1 | 39.7 (≈ 117 µM)
CCN(CC)c1ccc(C(=O)N/N=C(\C)c2cccnc2)cc1 | > 46.6
COc1ccc(CCNC2CCCCCC2)cc1 | > 37.1
CCCCC(=O)NNC(=O)N1c2ccccc2Sc2ccccc21 | > 51.2
CC(=O)Nc1ccc(NC(=O)c2ccc(Cl)nc2)cc1 | > 43.5
C/C(=C\C(=O)c1sccc1Cl)N(C)C | > 34.5
COc1ccccc1Nc1c2c(nc3ccccc13)CCC2 | 37.4 (≈ 129 µM)

Structure (SMILES) | solubility kinetic [µg/mL]
Cc1ccc(S(=O)(=O)NCCC(=O)NCc2cccnc2)cc1 | > 50
CN(Cc1ccccc1)c1cc(Cl)nc(N)n1 | 21.5 (≈ 86.4 µM)
O=C(O)c1cc([N+](=O)[O-])ccc1C(=O)Nc1cccc([N+](=O)[O-])c1 | > 49.7
Cc1ccc(C)c(NC(=S)NCCc2c[nH]c3ccccc23)c1 | 17.1 (≈ 52.9 µM)
O=C(CCS(=O)(=O)Cc1ccccc1)NCCc1ccccc1 | 11.9 (≈ 35.9 µM)
O=c1c2ccccc2nc(Cc2ccccc2)n1-c1cccc(O)c1 | 6 (≈ 18.3 µM)
N/C(=N\OC(=O)Cc1ccc(Cl)cc1)c1ccncc1 | 27.1 (≈ 93.5 µM)
Fc1ccc(NC(=S)Nc2ccc3nccnc3c2)cc1 | 41.9 (≈ 140 µM)
Cc1cc(O)c(C(=O)Nc2cccc(Cl)c2)c(=O)n1C | < 0.3
CN1CCN(c2oc(-c3ccc([N+](=O)[O-])cc3)nc2C#N)CC1 | 4.1 (≈ 13.1 µM)
CCS(=O)(=O)Nc1ccccc1C(N)=O | > 34.2
Cc1ccccc1NC(=O)CCCN1C(=O)C2CC=CCC2C1=O (configuration not stated) | > 49
O=C(CCN1C(=O)COc2ccccc21)N1CCN(c2ccccc2)CC1 | 47 (≈ 129 µM)
COc1ccc(C(=O)NC(C)c2cccnc2)cc1S(=O)(=O)N(C)Cc1ccccc1 (configuration not stated) | 47 (≈ 107 µM)
CCc1ccc(C(C)NC(=O)C2CCCC2)cc1 (configuration not stated) | 18.8 (≈ 76.6 µM)
O=C1NC2(CCCCCC2)N=C1c1ccc(Br)cc1 | 0.9 (≈ 2.8 µM)
O=C1CSCC(=O)N1c1ncc(C(F)(F)F)cc1Cl | 42 (≈ 135 µM)
N#Cc1c(N)nc2c(c1N)CC(C(F)(F)F)O2 (configuration not stated) | > 36.6
CCOc1ccc(-n2cc(-c3ccccc3)c3c(=S)nc[nH]c32)cc1 | 0.3 (≈ 0.863 µM)

More lines, now with the values ahead:

solubility kinetic [µg/mL] | Structure (SMILES)
35 (≈ 117 µM) | COc1cc2ncnc(NCc3ccc(C)o3)c2cc1OC
53.1 (≈ 141 µM) | CC(C)NS(=O)(=O)c1ccc(OCC(=O)NC(C)c2ccccc2)cc1 (configuration not stated)
1.2 (≈ 3.64 µM) | CC(C)(C)c1ccc(CN2C(=O)c3ccccc3S2(=O)=O)cc1
7.9 (≈ 23.2 µM) | CC(=O)N1CCN(c2nc3ccc(Br)cc3s2)CC1
50.1 (≈ 149 µM) | COc1ccc(NC(=O)COC(=O)Cc2ccsc2)c(OC)c1
5.1 (≈ 17.1 µM) | CCOc1cccc(C(=O)NC(c2ccccc2)C(C)C)c1 (configuration not stated)
2 (≈ 5.82 µM) | COCC(=O)Nc1ccc(N2CCN(c3ccccc3)CC2)c(F)c1
35.8 (≈ 118 µM) | COc1ccccc1N=C1SCC(=O)N1Cc1ccco1
> 34 | N=C1SCC(=O)N1c1ccc(Cl)cc1
12.1 (≈ 42.1 µM) | CSc1ncc(C(=O)Nc2ccc(C)cc2C)c(C)n1
3.7 (≈ 11.4 µM) | CCOC(=O)c1cccc(N2C(=O)C3C4C=CC(CC4)C3C2=O)c1 (configuration not stated)
0.9 (≈ 3.02 µM) | CC(=O)c1c(-c2ccc(Cl)cc2)c2ccccc2[nH]c1=O
> 46.3 | CCn1ccnc1CN1CCN(CCC(C)C)C(CCO)C1 (configuration not stated)
44.2 (≈ 145 µM) | CCN1C(=O)NC(c2ccc(Cl)cc2)C2=C1CCCC2=O (configuration not stated)
> 33.8 | Cc1cc(C)n(-c2c(C)[nH]c3ccccc23)n1
> 47.9 | Cc1noc(C)c1C(=O)OCC(=O)N(C)C1(C#N)CCCCC1
> 56.3 | NC(=O)C1(N2CCCCC2)CCN(Cc2nc(-c3cccs3)no2)CC1
2.2 (≈ 6.52 µM) | Cc1ccc(CN2CCN(CC(=O)NCc3ccccc3)CC2)cc1
17.7 (≈ 77.9 µM) | Nc1ccc(-c2nc3ccccc3s2)cn1
> 43 | O=S(=O)(Nc1cccnc1Cl)c1ccc(F)cc1
30.9 (≈ 106 µM) | COc1ccc(C)cc1NC(=O)CN(C)C1CCCCC1
> 38 | O=S1(=O)CCN2C=C(Cl)C=C(Cl)C2=N1
1.5 (≈ 4.63 µM) | O=C(NCc1ccc(Cl)c(Cl)c1)c1ccc2c(c1)OCO2
< 0.5 | COc1ccc(-n2ccc3ccccc32)cc1
> 50.6 | CCCCCC(=O)Nc1cccc(S(=O)(=O)NC2=NCCC2)c1

solubility kinetic [µg/mL] | Structure (SMILES)
> 49 | Cc1ccc(S(=O)(=O)Nc2nc(C)c(C(=O)NN)s2)cc1
25 (≈ 86.1 µM) | Cc1cc(-c2ccccc2)nc(N(C)C)c1S(C)(=O)=O
< 0.8 | Cc1ccc(/C=C2\SC(=S)N(C3CCS(=O)(=O)C3)C2=O)cc1 (configuration not stated)
11 (≈ 39 µM) | CCOc1nc(C)ccc1-c1noc(-c2cccnc2)n1
< 0.3 | Nc1ccc(-c2c3ccccc3nc3ccccc23)cc1
> 55.2 | CC(C)OCCCNC(=O)CN1CCN(Cc2ccc(Cl)cc2)C1=O
48.3 (≈ 142 µM) | CCn1c(=O)c2c(nc3n2CCCN3c2cccc(C)c2)n(C)c1=O
> 58.2 | O=C(Nc1ccccc1)c1cc(S(=O)(=O)Nc2cccnc2)ccc1Cl
32.9 (≈ 99.6 µM) | CCOc1ccccc1/C=N/OCC(=O)NCc1ccc(F)cc1
14.2 (≈ 52.5 µM) | O=C(NCCc1ccc([N+](=O)[O-])cc1)c1ccccc1
> 47.3 | Nc1nccnc1C(=O)OCC(=O)NNC(=O)c1ccccc1
3.8 (≈ 14.3 µM) | Cc1cc(C(=O)Nc2ccc3ccccc3c2)oc1C
> 33.3 | Cc1cc(C(=O)N2C(C)CCCC2C)no1 (configuration not stated)
> 40.5 | CSc1ccc(CNCc2ccco2)cc1.Cl
32 (≈ 104 µM) | CC12CCC(C(=O)Nc3cc(F)ccc3F)(CC1=O)C2(C)C (configuration not stated)
8.6 (≈ 26.6 µM) | O=C(CSc1ccc(F)cc1)NCCc1ccc(Cl)cc1
1.5 (≈ 5.31 µM) | O=C(Nc1cccc2cccnc12)c1cccc(Cl)c1
> 19.4 | CC1CC(O)C(C)CN1 (configuration not stated)
31.7 (≈ 84.2 µM) | CC(C)C(C)N(Cc1cccc(C(=O)O)c1)C(=O)c1ccc2ccccc2n1 (configuration not stated)
> 40.5 | Brc1cccc(CNCC2CCCO2)c1 (configuration not stated)
36.5 (≈ 122 µM) | CC(C)(CO)Nc1nc(Cl)nc(NC2CCCCC2)n1
> 44.2 | CCCNS(=O)(=O)c1cc2c3c(c1)CCN3C(=O)CC2
1.2 (≈ 3.56 µM) | Cc1cccc(-c2noc(CNC(=O)COc3ccccc3C)n2)c1
> 43.2 | O=C(CSc1ccccn1)Nc1ccc2c(c1)OCO2
